{"source": "patent US10117890B2", "about": "“Methods and compositions for treating pain” (Academia Sinica, priority 2012, dated 2018)", "key": {"[1]": {"system": "ASIC3-expressing muscle nociceptors", "experiment": "Whole-cell patch clamp of acid-induced current in ASIC3-expressing muscle nociceptors", "format": "cell-based, mice", "conditions": "T1-11 10 nM; n=9", "description": "To retrograde-trace muscle-afferent DRG neurons, mice were injected with 4% Fluorogold (Fluorochrome, Denver, Colo.) into the GM of both legs for 5 to 7 days, then lumbar DRG neurons were dissected and removed from both sides and placed in a tube for digestion with 1 ml DMEM containing 0.125% type 1 collagenase for 90 min and 0.25% trypsin for 20 min at 37° C. The digested DRG neurons were washed with fetal calf serum (FCS)-free DMEM or DMEM containing 10% FCS during each treatment. Fully digested DRGs were triturated and plated on poly-L-lysine-coated cover slides. Cell cultures were maintained in a 5% CO2 incubator at 37° C.\nWhole-cell patch-clamp recordings of muscle-afferent neurons involved use of Axopatch MultiClamp 700B (Axon Instruments). Neurons with membrane potential >−40 mV were discarded. […]\nVoltage-clamp mode was used to examine the effect of SP on acid-induced currents in ASIC3-expressing DRG neurons. A total of 40 GM and 6 non-GM DRG neurons were recorded in voltage-clamp mode with Vm held at −70 mV. […] To validate whether the modulation of SP on acid-induced current was NK1-receptor specific, acid-induced current was first recorded in a bath containing 10 μM RP67580 for 2 min as a control response. […] Acid-induced current was recorded in a bath containing both SP and genistein (30 μM; Tocris), or both SP and daidzein (30 μM; Tocris) for 3 min. […]"}, "ASIC3": {"system": "ASIC3", "experiment": "Whole-cell patch clamp of acid-induced current in CHO cells transfected with ASIC3", "format": "cell-based"}}, "note": "Entries after “also recorded” stand apart in the source; their conditions may differ."}
{"smiles": "OC[C@H]1O[C@@H](n2cnc3c(NCc4ccc(O)cc4)ncnc32)[C@H](O)[C@@H]1O", "note": "[T1-11, N^6-(4-hydroxybenzyl)adenosine]", "values": [{"measurement": "acid-induced current in ASIC3-expressing muscle nociceptors", "setting": "[1]", "result": "is enough to inhibit acid-induced current; also recorded: inhibited acid-induced current in all ASIC3-expressing muscle nociceptors"}, {"measurement": "acid-induced current in CHO cells transfected with ASIC3", "setting": "ASIC3", "result": "blocked"}]}
